In paper PMC11945486, “TAS1R2/TAS1R3 Single-Nucleotide Polymorphisms Affect Sweet Taste Receptor Activation by Sweeteners: The SWEET Project” (Nutrients, 2025):

Biological target: T1, mTAS1R2-WT/mTAS1R3-I60T (Mus musculus, UniProt Q925D8+Q925I4, I60T)
T1 construct: expressed in transfected cells; host or cells: HEK293T-Gα16gust44
T1 sequence (Q925I4 20-843): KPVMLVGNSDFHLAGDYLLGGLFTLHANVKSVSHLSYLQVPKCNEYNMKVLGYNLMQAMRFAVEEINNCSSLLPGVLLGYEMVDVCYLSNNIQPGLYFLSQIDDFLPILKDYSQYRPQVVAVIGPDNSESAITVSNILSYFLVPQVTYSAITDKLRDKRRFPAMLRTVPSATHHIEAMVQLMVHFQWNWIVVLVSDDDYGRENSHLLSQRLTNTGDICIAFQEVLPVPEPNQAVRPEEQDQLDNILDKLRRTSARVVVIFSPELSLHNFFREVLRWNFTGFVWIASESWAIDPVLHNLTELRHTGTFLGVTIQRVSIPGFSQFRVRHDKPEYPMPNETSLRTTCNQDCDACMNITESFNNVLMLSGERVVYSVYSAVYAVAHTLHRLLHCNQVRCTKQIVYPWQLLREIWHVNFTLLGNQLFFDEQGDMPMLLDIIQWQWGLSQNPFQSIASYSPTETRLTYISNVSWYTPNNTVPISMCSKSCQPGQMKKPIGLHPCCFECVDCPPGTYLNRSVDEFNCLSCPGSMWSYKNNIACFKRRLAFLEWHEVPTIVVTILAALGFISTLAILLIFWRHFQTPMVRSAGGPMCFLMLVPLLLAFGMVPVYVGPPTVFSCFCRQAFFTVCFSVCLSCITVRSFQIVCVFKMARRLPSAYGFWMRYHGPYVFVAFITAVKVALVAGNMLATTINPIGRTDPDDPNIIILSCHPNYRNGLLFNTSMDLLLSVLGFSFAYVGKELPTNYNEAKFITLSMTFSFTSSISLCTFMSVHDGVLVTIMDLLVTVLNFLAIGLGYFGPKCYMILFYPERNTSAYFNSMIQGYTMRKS
T1 sequence (Q925D8 21-858 I60T): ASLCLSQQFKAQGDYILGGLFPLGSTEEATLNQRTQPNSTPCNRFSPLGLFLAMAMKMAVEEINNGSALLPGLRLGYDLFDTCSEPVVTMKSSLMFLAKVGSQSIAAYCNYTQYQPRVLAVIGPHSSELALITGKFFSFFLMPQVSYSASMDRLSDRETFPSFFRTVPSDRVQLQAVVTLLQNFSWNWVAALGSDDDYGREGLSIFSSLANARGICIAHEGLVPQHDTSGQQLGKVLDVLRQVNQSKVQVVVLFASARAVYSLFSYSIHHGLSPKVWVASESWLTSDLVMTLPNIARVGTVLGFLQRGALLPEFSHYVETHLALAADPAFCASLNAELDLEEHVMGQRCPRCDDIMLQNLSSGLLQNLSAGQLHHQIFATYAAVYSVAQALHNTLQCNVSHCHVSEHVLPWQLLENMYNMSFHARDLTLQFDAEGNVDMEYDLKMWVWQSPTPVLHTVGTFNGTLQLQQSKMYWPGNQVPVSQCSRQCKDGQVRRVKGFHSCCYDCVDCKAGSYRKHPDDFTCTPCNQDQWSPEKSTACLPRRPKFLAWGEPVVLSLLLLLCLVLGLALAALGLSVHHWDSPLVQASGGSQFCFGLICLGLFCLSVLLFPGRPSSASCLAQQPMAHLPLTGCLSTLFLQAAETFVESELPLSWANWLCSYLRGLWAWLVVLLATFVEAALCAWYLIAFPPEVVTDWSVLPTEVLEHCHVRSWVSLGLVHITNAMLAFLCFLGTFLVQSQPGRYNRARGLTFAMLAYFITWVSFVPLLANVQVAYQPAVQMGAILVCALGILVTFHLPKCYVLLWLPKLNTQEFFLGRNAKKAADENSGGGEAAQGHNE
Assay: Calcium mobilisation assay, HEK293T-Gα16gust44 cells, mouse TAS1R3-I60T variant
Format: cell-based
Settings: "-": no activation; for EC50 / Max ΔF/F0: mTAS1R2-WT + mTAS1R3-I60T; for Max ΔF/F0: maximal signal amplitude; for R1 = Variant EC50/WT EC50: mTAS1R3-I60T vs mTAS1R3-WT
Description: The HEK293T cells were kindly provided by Jay P. Slack (Givaudan Flavors Corporation; Cincinnati, OH, USA). HEK293T cells stably transfected with Gα16gust44 [43, 67] were seeded in poly-D-lysine-coated clear-bottom black 96-well plates (0.35 × 10^5 cells/well) in high-glucose DMEM supplemented with 2 mM GlutaMAX, 10% dialysed foetal bovine serum with penicillin/streptomycin and G418 (400 μg/mL) at 37 °C and 6.3% CO2 in a humidified atmosphere as previously reported. […] As a negative control, HEK293T cells were mock-transfected with the empty expression vector. After a further 24 h of incubation, the HEK293T cells were washed with C1 buffer (130 mM NaCl, 5 mM KCl, 10 mM HEPES pH 7.4 and 2 mM CaCl2). The 96-well plates containing the cells were then stimulated with sweet-tasting compounds. […] Different concentration ranges were tested depending on the sweet compound injected. The Ca^2+ changes were expressed as fractional changes in fluorescent light intensity: ΔF/F = (F − F0)/F0, where F was the fluorescent light intensity at each point, and F0 was the value of emitted fluorescent light prior to stimulus application. To calculate dose–response relationships, the changes in fluorescence upon stimulus application were averaged, mock-subtracted and baseline-corrected. The dose–response data obtained were adjusted using a 4-parameter logistic equation. The half-maximal effective concentrations (EC50 values) and maximal signal amplitudes were calculated using SigmaPlot software (version 15.0) (Systat Software; San Jose, CA, USA).
HEK293T-Gα16gust44 cells were transiently cotransfected with pcDNA6-MAX-mTAS1R2-FLAG, pcDNA4-MAX-mTAS1R3-WT-FLAG or pcDNA4-MAX-mTAS1R3-I60T-FLAG, and pCMV-GCaMP5G as previously described in detail. After 24 h, the cells were washed with C1 buffer and stimulated with a logarithmically increasing range of sweetener concentrations. Calcium responses during automated application were monitored using a FlexStation®3 Multi-Mode microplate reader. The dose–response curves, EC50 values and maximal signal amplitudes were calculated as previously described.
For in vitro calcium mobilisation assay performed on hTAS1R2-SNPs, hTAS1R3-SNPs and mTAS1R3-I60T, 6 to 7 concentrations were tested for each sweet compound, plus buffer alone. All concentration–receptor combinations were measured in duplicate, and each experiment was repeated at least 4 times (8 wells/concentration). Results were expressed for each concentration as ΔF/F mean ± SEM and represented as dose–response curves.

Row | EC50 [µM] | Max ΔF/F0 | R1 = Variant EC50/WT EC50 | Structure (SMILES)
1 | 744 ± 19 | 1.03 ± 0.02 | 1.7 | CC1=CC(=O)NS(=O)(=O)O1 [Acesulfame K, acesulfame K]
2 | 73 ± 2 | 0.71 ± 0.01 | 1.7 | C=C1C[C@@]23CC[C@H]4[C@@](C)(CCC[C@@]4(C)C(=O)O[C@@H]4O[C@H](CO)[C@@H](O)[C@H](O[C@@H]5O[C@H](CO)[C@@H](O)[C@H](O)[C@H]5O)[C@H]4O[C@@H]4O[C@H](CO)[C@@H](O)[C@H](O)[C@H]4O)[C@@H]2CC[C@]1(O[C@@H]1O[C@H](CO)[C@@H](O)[C@H](O[C@@H]2O[C@H](CO)[C@@H](O)[C@H](O)[C@H]2O)[C@H]1O[C@@H]1O[C@H](CO)[C@@H](O)[C@H](O)[C@H]1O)C3 [Rebaudioside M, rebaudioside M]
3 | 1520 ± 56 | 1.47 ± 0.03 | 2.0 | OC[C@H]1O[C@H](O[C@]2(CCl)O[C@H](CCl)[C@@H](O)[C@@H]2O)[C@H](O)[C@@H](O)[C@H]1Cl [Sucralose]

Row | Structure (SMILES) | EC50 [µM] | Max ΔF/F0 | R1 = Variant EC50/WT EC50
4 | C[C@H](CC[C@@H](O[C@@H]1O[C@H](CO[C@@H]2O[C@H](CO)[C@@H](O)[C@H](O)[C@H]2O)[C@@H](O)[C@H](O)[C@H]1O[C@@H]1O[C@H](CO)[C@@H](O)[C@H](O)[C@H]1O)C(C)(C)O)[C@H]1CC[C@@]2(C)[C@@H]3CC=C4[C@@H](CC[C@H](O[C@@H]5O[C@H](CO[C@@H]6O[C@H](CO)[C@@H](O)[C@H](O)[C@H]6O)[C@@H](O)[C@H](O)[C@H]5O)C4(C)C)[C@]3(C)[C@H](O)C[C@]12C [Mogroside V, mogroside V] | 225 ± 25 | 0.50 ± 0.03 | 1.7
